From patent US8835501B2, “Pharmaceutical formulations of HDAC inhibitors” (TopoTarget UK Limited, priority 2005, dated 2014)
Values after ≈ are worked out from the molar mass of the structure shown. Values joined by “and” are separate entries in the source; they are usually repeats but may differ in a detail not shown here. Identical values can stand only once. Like-named read-outs stand apart in the source and are kept apart here. One block for each compound: values may come before it.

Key:
[1] = Solubility enhancement with acidic and basic in situ salt formers (~[…])
[2] = Solubility enhancement with cyclodextrins (saturated PXD-101 samples; HP-β-CD phase solubility); type: physicochemical; details: saturated PXD-101 in aqueous cyclodextrin 250 mg/mL (α-CD 100 mg/mL)
Experimental: Saturated samples of PXD-101 were prepared in aqueous solutions of two natural cyclodextrins (α-CD and γ-CD) and hydroxypropyl derivatives of the α, β and γ cyclodextrins (HP-α-CD, HP-β-CD and HP-γ-CD). […] The calculated saturated solubilities of the complexed HDACi were plotted against the concentration of cyclodextrin. […] This type of phase solubility diagram for cyclodextrins is referred to as an A-Type phase solubility plot. […] This deviation may be due to experimental error caused by the decision to use of mass, instead of volume, to dispense the more concentrated cyclodextrin samples due to their viscosity. Alternatively, it is possible that there is a slight deviation from the linear A-Type phase solubility behaviour.

[3] = Solubility enhancement with cyclodextrin and in situ salt formers; type: physicochemical
[4] = tested on: histone (H4 and/or H3) acetylation in peripheral blood mononuclear cells; assay: Pharmacodynamic analysis: histone acetylation in peripheral blood mononuclear cells; type: in vivo, human; details: intravenous administration
Description: Histones were isolated and probed with anti-acetylated histone (H4 and/or H3) antibody followed by HRP-secondary antibody.

[5] = human, in vivo, iv
[6] = pH solubility profile in buffered 25% w/v HP-β-CD; type: physicochemical
Description: It was noted that zwitterions can be self-buffering and this effect caused some instability in the buffering capacity of the buffer systems at high pH. Therefore, the required pH could only be achieved by adjusting the pH of the system by the addition of 1 M NaOH.

[7] = Plasma PK analysis after 30-min I.V. infusion in subjects with advanced cancer; type: in vivo, human
Experimental: Plasma PK analysis was performed for subjects of all dose groups on days 1 and 5 of cycle 1 following 30 minutes of I.V. infusion.

[8] = physchem; details: thermodynamic from solid, PXD-101 Concentration
[9] = Solubility of PXD-101 in demineralised water; type: physicochemical
[10] = Oral administration of PXD-101 (gelatin capsule) to subjects; type: in vivo, human
Description: Several subjects received PXD-101 in an oral formulation (e.g., PXD-101 in a gelatin capsule). […] Bioavailability for the oral formulation was approximately 33%.

[11] = Dilution experiments of saturated HDACi/salt former solutions; type: physicochemical; details: for appearance after dilution with pH 7.4 phosphate buffer: 0.47 M and 0.314 M saturated samples
[12] = cited from earlier work
[13] = Phase solubility for arginine and meglumine
[14] = humans, given as a nutritional additive; cited from earlier work
[15] = PXD-101 in basic in situ salt former, […]
[16] = 150 mg/m^2, 30-min I.V. infusion, cycle 1
[17] = 300 mg/m^2, 30-min I.V. infusion, cycle 1
[18] = 600 mg/m^2, 30-min I.V. infusion, cycle 1
[19] = 900 mg/m^2, 30-min I.V. infusion, cycle 1
[20] = 1200 mg/m^2, 30-min I.V. infusion, cycle 1
[21] = PXD-101 in acidic in situ salt former, […]

pH of Solution [1, 15]: 9.13
SMILES: OCCNCCO [Diethanolamine]

SMILES: OC[C@H]1O[C@@H]2O[C@H]3[C@H](O)[C@@H](O)[C@@H](O[C@H]4[C@H](O)[C@@H](O)[C@@H](O[C@H]5[C@H](O)[C@@H](O)[C@@H](O[C@H]6[C@H](O)[C@@H](O)[C@@H](O[C@H]7[C@H](O)[C@@H](O)[C@@H](O[C@H]1[C@H](O)[C@H]2O)O[C@@H]7CO)O[C@@H]6CO)O[C@@H]5CO)O[C@@H]4CO)O[C@@H]3CO [α-CD, α-cyclodextrin]
HDACi (PXD-101) Concentration [2]: 0.65 mg/mL

SMILES: NCCCC[C@H](N)C(=O)O [Lysine]
pH of Solution [1]: 9.11

SMILES: O=C(/C=C/c1cccc(S(=O)(=O)Nc2ccccc2)c1)NO [PXD-101, N-hydroxy-3-(3-phenylsulfamoyl-phenyl)-acrylamide]
PXD-101 Concentration ([3]; 25% w/v HP-β-CD + arginine 0.157 M (27.4 mg/mL)): 39.2 mg/mL
PXD-101 Concentration ([3]; 25% w/v HP-β-CD + arginine 0.314 M (54.8 mg/mL)): 57.1 mg/mL and 57.0 mg/mL
PXD-101 Concentration ([3]; 25% w/v HP-β-CD + meglumine 0.157 M (30.7 mg/mL)): 43.0 mg/mL
PXD-101 Concentration ([3]; 25% w/v HP-β-CD + meglumine 0.314 M (61.4 mg/mL)): 62.5 mg/mL
enhancement of HDACi solubility ([3]; using one or more of cyclodextrin, arginine, meglumine): ~500 fold
time after administration at which increased acetylated histones could be detected [4]: up to 24 hours
laboratory tests / hematological toxicity [5]: no hematological toxicity was identified
main HDACi-related adverse events [5]: fatigue, nausea, vomiting (infusion-related), and phlebitis
other adverse events [5]: headache, diarrhea, constipation, and dyspnea
PXD-101 Conc. ([6]; pH adjusted with 1M NaOH, actual pH 8.91): 36.0 mg/mL
PXD-101 Conc. ([6]; target pH 4, actual pH 4.35): 14.5 mg/mL
PXD-101 Conc. ([6]; target pH 6, actual pH 5.99): 17.3 mg/mL
PXD-101 Conc. ([6]; target pH 7.4, actual pH 7.28): 18.8 mg/mL
PXD-101 Conc. ([6]; target pH 9.5, actual pH 8.09): 19.4 mg/mL
AUC0-t/AUC0-∞ [7, 16]: 99.0 ± 0.7%
AUCday 5/AUCday 1 [7, 16]: 115 ± 22%
CLs [7, 16]: 122.6 ± 30.6 L/hr/m^2
Vd [7, 16]: 115.1 ± 43.5 L/m^2
AUC0-t/AUC0-∞ [7, 17]: 99.7 ± 0.1%
AUCday 5/AUCday 1 [7, 17]: 112 ± 21%
CLs [7, 17]: 94.6 ± 34.9 L/hr/m^2
Vd [7, 17]: 88.8 ± 31.8 L/m^2
AUC0-t/AUC0-∞ [7, 18]: 99.9 ± 0.0%
AUCday 5/AUCday 1 [7, 18]: 97%
CLs [7, 18]: 59.6 ± 16.0 L/hr/m^2
Cmax [7, 18]: 31.177 ± 8.968 µg/mL
Vd [7, 18]: 57.6 ± 13.9 L/m^2
AUC0-t/AUC0-∞ [7, 19]: 99.8 ± 0.1%
CLs [7, 19]: 63.5 ± 16.4 L/hr/m^2
Vd [7, 19]: 48.8 ± 9.8 L/m^2
AUC0-t/AUC0-∞ [7, 20]: 99.8 ± 0.1%
CLs [7, 20]: 66.6 ± 33.5 L/hr/m^2
Vd [7, 20]: 90.2 ± 87.3 L/m^2
accumulation on repeated dosing ([7]; I.V. days 1 to 5): no HDACi accumulation
dose dependence of plasma levels and AUC ([7]; I.V., 150-1200 mg/m^2): dose proportional
AUC(0-t) ([7]; human, plasma, iv, 150 mg/m^2, 30-min I.V. infusion, cycle 1): 1.27 ± 0.272 µg·h/mL
Cmax ([7]; human, plasma, iv, 150 mg/m^2, 30-min I.V. infusion, cycle 1, read-out: Cmax): 6.57 ± 2.16 µg/mL
half-life ([7]; human, plasma, iv, 150 mg/m^2, 30-min I.V. infusion, cycle 1, read-out: t1/2): 46.6 ± 8.7 min
AUC(0-t) ([7]; human, plasma, iv, 300 mg/m^2, 30-min I.V. infusion, cycle 1): 3.5 ± 1.1 µg·h/mL
Cmax ([7]; human, plasma, iv, 300 mg/m^2, 30-min I.V. infusion, cycle 1, read-out: Cmax): 15.5 ± 6.25 µg/mL
half-life ([7]; human, plasma, iv, 300 mg/m^2, 30-min I.V. infusion, cycle 1, read-out: t1/2): 44.6 ± 8 min
AUC(0-t) ([7]; human, plasma, iv, 600 mg/m^2, 30-min I.V. infusion, cycle 1): 10.7 ± 3.01 µg·h/mL
half-life ([7]; human, plasma, iv, 600 mg/m^2, 30-min I.V. infusion, cycle 1, read-out: t1/2): 43.4 ± 6.7 min
AUC(0-t) ([7]; human, plasma, iv, 900 mg/m^2, 30-min I.V. infusion, cycle 1): 14.7 ± 3.41 µg·h/mL
Cmax ([7]; human, plasma, iv, 900 mg/m^2, 30-min I.V. infusion, cycle 1, read-out: Cmax): 53.8 ± 6.38 µg/mL
half-life ([7]; human, plasma, iv, 900 mg/m^2, 30-min I.V. infusion, cycle 1, read-out: t1/2): 54.2 ± 8.7 min
AUC(0-t) ([7]; human, plasma, iv, 1200 mg/m^2, 30-min I.V. infusion, cycle 1): 22 ± 11 µg·h/mL
Cmax ([7]; human, plasma, iv, 1200 mg/m^2, 30-min I.V. infusion, cycle 1, read-out: Cmax): 52.4 ± 12.7 µg/mL
half-life ([7]; human, plasma, iv, 1200 mg/m^2, 30-min I.V. infusion, cycle 1, read-out: t1/2): 85.5 ± 19.6 min
half-life ([7]; human, plasma, iv, I.V., across dose levels 150-1200 mg/m^2, read-out: elimination half-life): 47 to 86 min
solubility thermodynamic ([8]; pH 9.07, aqueous with cosolvent or surfactant or cyclodextrin): 13.5 mg/mL (≈ 42.4 mM)
solubility thermodynamic ([8]; pH 9.1, aqueous with cosolvent or surfactant or cyclodextrin): 7.9 mg/mL (≈ 24.8 mM)
solubility thermodynamic ([8]; pH 9.19, aqueous with cosolvent or surfactant or cyclodextrin): 31.1 mg/mL (≈ 97.7 mM)
solubility thermodynamic ([8]; pH 9.2, aqueous with cosolvent or surfactant or cyclodextrin): 21.2 mg/mL (≈ 66.6 mM)
solubility thermodynamic ([8]; pH 9.33, aqueous with cosolvent or surfactant or cyclodextrin): 39.1 mg/mL (≈ 123 mM)
solubility thermodynamic ([8]; pH 9.4, aqueous with cosolvent or surfactant or cyclodextrin): 57.3 mg/mL (≈ 180 mM)
solubility [9]: 0.14 mg/mL (≈ 0.44 mM)
plasma levels, oral versus intravenous ([10]; 900 and 1200 mg/m^2, FIG. 12): remain higher when dosed orally
bioavailability ([10]; human, plasma, oral formulation (gelatin capsule)): ~33%
tolerability ([10]; oral dosing, preliminary data): good tolerability

pH of Solution [1, 15]: 8.97
SMILES: NC(CO)(CO)CO [Tris]

dilution of saturated HDACi solution to infusion concentration of […] ([11]; basic salt former solutions diluted with 5% w/v glucose and 0.9% w/v saline): incompatibility
SMILES: NCCN [Ethylenediamine]

SMILES: CNC[C@H](O)[C@@H](O)[C@H](O)[C@H](O)CO [Meglumine, 1-deoxy-1-(methylamino)-D-glucitol]
solubility in water ([12]; 25° C.): ~100 g in 100 mL
appearance after dilution with pH 7.4 phosphate buffer [11]: turbid solutions
pH of saturated HDACi solution ([13]; basic salt ×1, 0.157 M): 9.20
pH of saturated HDACi solution ([13]; basic salt ×2, 0.314 M): 9.33
pH of saturated HDACi solution ([13]; basic salt ×3, 0.47 M): 9.40
Predicted Salt Former Conc. to achieve target PXD-101 Conc. ([13]; target PXD-101 50 mg/mL): 79.2 mg/mL
Predicted Salt Former Conc. to achieve target PXD-101 Conc. ([13]; target PXD-101 70 mg/mL): 126.9 mg/mL
Predicted Salt Former Conc. to achieve target PXD-101 Conc. ([13]; target PXD-101 100 mg/mL): 158.3 mg/mL

pH of Solution [1, 21]: 2.19
S/D Molar ratio (salt former-to-HDACi) ([1]; acidic in situ salt former, […]): 309
SMILES: O=C(O)CC(O)C(=O)O (centres unmarked) [Malic Acid]

SMILES: N=C(N)NCCC[C@H](N)C(=O)O [Arginine, (S)-2-amino-5-[(aminoiminomethyl)-amino]pentanoic acid]
content of saturated aqueous solution ([12]; water, 21° C.): 15 % w/w
appearance after dilution with pH 7.4 phosphate buffer [11]: initially clear solutions but some crystallisation
well tolerated dose [14]: up to 30 g/kg

pH of Solution [1, 21]: 1.65
SMILES: O=C(O)/C=C\C(=O)O [Maleic Acid]

pH of Solution [1, 21]: 2.43
SMILES: O=C(O)[C@H](O)[C@@H](O)[C@H](O[C@@H]1O[C@H](CO)[C@H](O)[C@H](O)[C@H]1O)[C@H](O)CO [Lactobionic Acid]
